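A five-concentration, 48-hour dose response in 96-well plates underlies each endpoint, interpolated linearly between surrounding concentrations. At the GI50, growth is halved. TGI marks complete inhibition of growth.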
Tests used:
Test in all cases: NCI tumour cell line growth inhibition, 48 h
[1] = system: SNB-19 CNS
[2] = system: ACHN renal
[3] = system: SK-MEL-28 melanoma
[4] = system: COLO 205 colon
[5] = system: HL-60(TB) leukemia
[6] = system: SK-MEL-2 melanoma
[7] = system: KM12 colon
[8] = system: SW-620 colon
[9] = system: T-47D breast
[10] = system: BT-549 breast

SMILES | TGI [1] [µM] | TGI [2] [µM] | TGI [3] [µM] | TGI [4] [µM] | TGI [5] [µM] | TGI [6] [µM] | TGI [7] [µM] | TGI [8] [µM] | GI50 [1] [µM] | GI50 [3] [µM] | GI50 [4] [µM] | GI50 [5] [µM] | GI50 [6] [µM] | GI50 [9] [µM] | TGI [9] [µM] | GI50 [7] [µM] | GI50 [8] [µM] | GI50 [10] [µM] | TGI [10] [µM] | GI50 [2] [µM]
CCOC(=O)CC(NC(=O)c1ccc(N=NN(C)C)cc1)C(=O)OCC (stereo not drawn) | > 100 | > 100 | > 100 | > 100 | > 100 | > 100 | > 100 | > 100 |  |  |  |  |  |  |  |  |  |  |  | 
CCCCCCCCCCCCCCCCCC(=O)NCC(COP(=O)(O)O)OCC (stereo not drawn) | 90.2 |  | > 100 | > 100 | > 100 | > 100 | 58.3 | > 100 |  |  |  |  |  |  |  |  |  |  |  | 
COc1cc2c(cc1OCCCOc1ccc(-c3nc4ccc(N5CCN(C)CC5)cc4[nH]3)cc1)N=C[C@@H]1CCCN1C2=O | 17.1 |  | 54.5 | > 100 | < 0.01 | < 0.01 |  | 15.2 | < 0.01 | < 0.01 | < 0.01 | < 0.01 | < 0.01 | < 0.01 | 15 | < 0.01 | < 0.01 | < 0.01 | < 0.01 | 
COC(=O)C(=O)C(C(=O)C(=O)Nc1cc(Cl)c(Cl)cc1Cl)c1nc2ccc([N+](=O)[O-])cc2[nH]c1=O (stereo not drawn) | > 100 | > 100 | > 100 | > 100 |  | > 100 | > 100 | > 100 |  |  |  |  |  |  |  |  |  |  |  | 
Cc1ccccc1NC(=O)Cc1csc(N=Nc2c(O)[nH]c3ccccc23)n1 | > 100 | > 100 | > 1 | > 100 | 62.1 | > 100 | > 100 | > 1 |  |  |  |  |  |  |  |  |  |  |  | 
CC(=O)[C-](C(C)=O)c1ccccc1.CC(=O)[C-](C(C)=O)c1ccccc1.CC(=O)[C-](C(C)=O)c1ccccc1.[Cl-].[Zr+4] | > 100 |  |  | > 100 | > 100 | > 100 | > 100 | > 100 | 82.9 |  | > 100 | > 100 | > 100 |  |  | > 100 | > 100 |  |  | 
CC(C)N1C(C)[C@@H](c2ccccc2)O[P@]1(=O)CC1=CCCCC1 (stereo partly drawn) | > 100 | > 100 | > 100 | > 100 | 57.4 | > 100 | > 100 | > 100 |  |  |  |  |  |  |  |  |  |  |  | 
COc1cc(C(C#N)NNc2nc(C)cc(=O)[nH]2)cc(OC)c1OC (stereo not drawn) |  | > 100 | > 100 | > 100 | > 100 | > 100 | > 100 | > 100 |  |  |  |  |  |  |  |  |  |  |  | 
CC(C)(C)Sc1nnc(SC(C)(C)C)c2c(=O)[nH]nc(SC(C)(C)C)c12 | 23.8 |  |  | 25.2 | 16.1 |  | 25.6 | 20.8 |  |  |  |  |  |  |  |  |  |  |  | 
Cc1noc(/N=C2\C=C(Nc3onc(C)c3C)C(=O)c3ccccc32)c1C | > 100 | > 100 | > 100 | > 100 | > 100 | > 100 | > 100 | > 100 |  |  |  |  |  |  |  |  |  |  |  | 
c1ccc(-c2nnc3nn4c(-c5ccccc5)cnnc4c3c2-c2ccccc2)cc1 | 61.2 | > 100 | > 100 |  | > 100 | > 100 | > 100 | > 100 |  |  |  |  |  |  |  |  |  |  |  | 
COCCN1C(=O)C2c3[nH]c4ccccc4c3C3CCC(C(C)(C)C)CC3C2C1=O (stereo not drawn) | 44.6 | > 10 | 32.3 | 33.7 | 37.6 |  | 38.9 | 35.5 |  |  |  |  |  |  | 38.5 |  |  |  | 35.3 | 
O=S1(=O)c2ccccc2N=C(c2ccccc2Cl)CC1c1ccc(F)cc1 (stereo not drawn) | 31.4 | 32.6 | 32.7 | 40.3 | 45.4 | 35.9 | 31.8 | 31.5 |  |  |  |  |  |  |  |  |  |  |  | 
O=Cc1ccc(N2CCN(c3ccc(C=O)cc3)CC2)cc1 | > 100 | > 100 | > 100 | > 100 | > 100 | > 100 | > 100 | > 100 | > 100 | > 100 | > 100 | > 100 | > 100 | 3.35 | 32.6 | > 100 | > 100 |  |  | > 100
Cc1ccc2nc(NC(=O)C(=O)CC(=O)c3cccc4ccccc34)sc2c1 | > 100 | > 100 | > 100 | > 100 | > 100 | > 100 | > 100 | > 100 |  |  |  |  |  |  |  |  |  |  |  | 
CCCCNC1=C(C(=O)OCC)/C(=N/NC(=O)c2ccccc2O)CO1 | > 100 |  | > 100 | > 100 | > 100 | > 100 | > 100 | > 100 |  |  |  |  |  |  |  |  |  |  |  | 
O=C1CCC(=O)c2sccc2N1 | > 100 | > 100 | > 100 | > 100 | > 100 | > 100 | > 100 | > 100 |  |  |  |  |  |  |  |  |  |  |  | 
O=CCCCC(Sc1ccccc1)Sc1ccccc1 | > 100 | 38.4 | 32 | 57.9 | 78.3 | 42.7 | > 100 | 23.6 |  |  |  |  |  |  |  |  |  |  |  | 
COC(=O)C(C(=O)C(N)=O)c1csc(-n2nc(-c3ccccc3)cc2-c2ccccc2)n1 (stereo not drawn) | 17.2 | > 31.6 | > 31.6 | > 31.6 | > 31.6 | > 31.6 | > 31.6 | 6.02 |  |  |  |  |  |  |  |  |  |  |  | 
C/C(=N/O)c1ccc(Nc2cc(-n3ccnc3)c3ccccc3n2)cc1 | > 100 | 90.8 | > 100 | > 100 |  | > 100 | 18.5 | > 100 | 75.3 | 70.4 | 11.8 |  | 38.5 | 9.96 | > 100 | 2.64 | 41.8 | 16.8 | 84.7 | 18.6
COc1ccc2c(c1)c1c3n2CCNN=C3CCC1 | > 100 | > 100 | > 100 | > 100 | > 71.4 | > 100 | > 100 | > 100 |  |  |  |  |  |  |  |  |  |  |  | 
O=C(Cc1ccccc1)NN1C(=O)/C(=C\c2ccccc2O)SC1=Nc1ccccc1 | > 100 | > 100 | > 100 | > 100 |  | > 100 | > 100 | > 100 |  |  |  |  |  |  | > 100 |  |  |  | > 100 | 

— PubChem BioAssay (NCI)
